According to patent US10752596B2, “Nitrogen-containing heteroaryl compound and pharmaceutical use thereof” (JAPAN TOBACCO INC., priority 2017, dated 2020):
Where a name gives a salt, the structure may show the parent alone.

Molecular target: human GLUT9 (Homo sapiens (Human), UniProt Q9NRM0)
Test: Evaluation of human GLUT9 inhibitory activity ([14C] uric acid uptake in human GLUT9 expressing HEK293T cells transduced with Uricase/Hyper)
Format: cell-based
Conditions: human GLUT9 stably expressing HEK293T cells; for IC50: final 300 μM uric acid, 6 min, read-out: humans GLUT9 inhibitory activity (IC50 value (μM)); for inhibition at 10 µM: HEK-293T, 10 μM compound, read-out: GLUT9 inhibitory rate at 10 μM of compound
Protocol: A method for measuring GLUT9 inhibitory activity using human GLUT9 expressing cells transduced with Uricase/Hyper is shown hereinafter. GLUT9 inhibitory activity ([…]) of the test compound was calculated based on the intracellular uptake amount of labeled uric acid ([^14C] uric acid) transported by GLUT9.
1. Preparation of Human GLUT9 Expression Plasmid
Human GLUT9S coding region (NM_001001290.1) was amplified by PCR method using PrimeSTAR MAX DNA Polymerase (Takara Bio). The obtained PCR product was subjected to agarose gel electrophoresis, and the desired size of PCR product was purified by QIAquick Gel Extraction Kit (QIAGEN). Next, pEBMulti-Bsd vector (Wako Pure Chemical Industries, Ltd.) was subjected to digestion using restriction enzymes SalI and EcoR V, and linked to the PCR product containing GLUT9S by In-Fusion reaction using In-Fusion HD Cloning Kit (Takara Bio). XL10-Gold Competent Cells (Agilent Technologies) were transformed in In-Fusion reaction solution, and the obtained transfectants were cultured with shaking overnight in LB medium to which Blasticidin S HCl (Thermo Fisher Scientific) was added. Human GLUT9 expression plasmid DNA was prepared from the collected transfectants using EndoFree Plasmid Kit (Takara Bio).
2. Establish of Human GLUT9 Stably Expressing Cell
HEK293T cells (American Type Culture Collection, DS Pharma Biomedical) were seeded in a 6 well plate at 1×10^6 cells/well. Next day, human GLUT9 expression plasmid was transfected by using Lipofectamine 3000 Reagent (Thermo Fisher Scientific) as follows. Lipofectamine 3000 Reagent (5 μL) was diluted with Opti-MEM (125 μL, Thermo Fisher Scientific). Separately, plasmid DNA (2.5 μg) was diluted with Opti-MEM (125 μL), and P3000 Reagent (5 μL) was added thereto. The obtained solution was mixed with the previously obtained diluted solution, and the mixture was left stand at room temperature for 5 min, and added to the cells. Next day, the transfected cells were diluted and reseeded in a 6 well plate at 4×10^5 cells/well, and drug selection was performed in the presence of 30 μg/mL of Blasticidin S HCl, and thereby, Blasticidin-resistant human GLUT9 stably expressing cell line was established. Mock cells were prepared by introducing pEBMulti-Bsd vector into HEK293T cells in a similar manner.
3. Preparation of Uricase/Hyper Expression Plasmid
Uricase/Hyper expression plasmid was prepared by linking the coding regions of Aspergillus Flavus-derived uricase gene and pHyPer-Cyto vector (Evrogen) HyPer gene to the pEBMulti-Hyg vector (Wako Pure Chemical Industries, Ltd.) and then introducing it. The preparation method was performed by reference to Gout and Nucleic Acid Metabolism 2013, 37(2), 93-101, and seven repeated linker sequence of glycine-glycine-glycine-serine was prepared herein.
4. Preparation of Human GLUT9-Uricase/Hyper Coexpressing Cell
Human GLUT9 stably expressing cells were seeded at 3.6×10^7 cells per 225 cm^2 flask. Next day, Uricase/Hyper expression plasmid was transfected by using Lipofectamine 3000 Reagent as follows. Lipofectamine 3000 Reagent (40 μL) was diluted with Opti-MEM (750 μL). Separately, plasmid DNA (20 μg) was diluted with Opti-MEM (750 μL), and P3000 Reagent (40 μL) was added thereto. The obtained solution was mixed with the previously obtained diluted solution, and the mixture was left stand at room temperature for 5 min, and added to the cells. Next day, transfected cells were collected to prepare human GLUT9-Uricase/Hyper coexpressing cells.
5. Evaluation of GLUT9 Inhibitory Activity
Uricase/Hyper transiently-transfected human GLUT9 stably expressing cells or mock cells (blank) were seeded in a 96 well plate (Corning) at 1.6×10^5 cells/well, and cultured overnight at 37° C., 5% CO2. D-MEM/high glucose (Wako Pure Chemical Industries, Ltd.) containing 10% Fetal Bovine Serum (Lifetechnology) and 100 units/ml penicillin/100 μg/ml streptomycin (GIBCO) was used as a medium.

human GLUT9, sequence (Q9NRM0 other isoform, or with tags, fused parts or gaps): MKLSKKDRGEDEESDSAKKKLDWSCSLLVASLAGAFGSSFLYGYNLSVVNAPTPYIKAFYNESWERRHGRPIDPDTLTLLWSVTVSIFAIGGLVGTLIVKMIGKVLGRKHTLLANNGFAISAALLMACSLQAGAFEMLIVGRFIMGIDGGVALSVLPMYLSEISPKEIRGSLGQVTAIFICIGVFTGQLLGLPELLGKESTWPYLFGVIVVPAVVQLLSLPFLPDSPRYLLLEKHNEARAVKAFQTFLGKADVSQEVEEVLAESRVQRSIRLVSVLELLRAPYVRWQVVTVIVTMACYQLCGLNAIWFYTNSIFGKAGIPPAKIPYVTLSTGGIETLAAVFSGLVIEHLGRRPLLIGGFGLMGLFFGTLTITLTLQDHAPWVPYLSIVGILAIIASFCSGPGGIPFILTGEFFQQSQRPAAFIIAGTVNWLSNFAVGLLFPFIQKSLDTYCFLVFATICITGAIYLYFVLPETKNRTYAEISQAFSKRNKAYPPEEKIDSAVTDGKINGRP

| Structure (SMILES) | IC50 [µM] | inhibition at 10 µM [%] |
| --- | --- | --- |
| COc1ccc(-c2ncc(CCCC3(O)CCC3)cc2-c2ccc(C(=O)O)cc2)cc1 [Example 44] | 1.65 |  |
| COc1ccc(-c2ncc(CC3CCCCC3)cc2-c2ccc(C(=O)O)cc2)cc1 [Example 47] |  | 47 |
| CCCCc1cnc(-c2ccc(OC)cc2)c(-c2ccc(C(C)(C)C(=O)O)cc2)n1 [Example 48] | 7.12 |  |
| CCCCc1cnc(-c2ccc3c(c2)CCCO3)c(-c2ccc(C(=O)O)cc2)n1 [Example 49] | 0.201 |  |
| CCCCc1cnc(-c2ccc3c(c2)OCCO3)c(-c2ccc(C(=O)O)cc2)n1 [Example 50] | 0.133 |  |
| COc1ccc(-c2ncc(CCCCO)cc2-c2ccc(C(=O)O)cc2)cc1 [Example 51] | 0.962 |  |
| COc1ccc(-c2ncc(CCC3CC3)cc2-c2ccc(C(=O)O)cc2)cc1 [Example 52] | 0.119 |  |
| CCCCc1cnc(-c2ccc(C(C)(C)C)cc2)c(-c2ccc(C(=O)O)cc2)n1 [Example 55] | 3.99 |  |
| CCc1cnc(-c2ccc(OC)cc2)c(-c2ccc(C(=O)O)cc2)c1 [Example 56] | 0.18 |  |
| COc1ccc(-c2ncc(C(C)C)cc2-c2ccc(C(=O)O)cc2)cc1 [Example 57] | 0.344 |  |
| COc1ccc(-c2ncc(CC(C)C)cc2-c2ccc(C(=O)O)cc2)cc1 [Example 58] | 0.052 |  |
| COc1ccc(-c2ncc(C3CCCC3)cc2-c2ccc(C(=O)O)cc2)cc1 [Example 59] | 0.132 |  |
| COc1ccc(-c2ncc(C3CCOCC3)cc2-c2ccc(C(=O)O)cc2)cc1 [Example 60] |  | 45 |
| COc1ccc(-c2ncc(CCCO)cc2-c2ccc(C(=O)O)cc2)cc1 [Example 61] | 5.59 |  |
| COc1ccc(-c2ncc(CCC(F)(F)F)cc2-c2ccc(C(=O)O)cc2)cc1 [Example 62] | 0.127 |  |
| COc1ccc(-c2ncc(CCC3CCCC3)cc2-c2ccc(C(=O)O)cc2)cc1 [Example 63] | 0.659 |  |
| CCCCc1cnc(-c2cc(F)c(OC)c(Cl)c2)c(-c2ccc(C(=O)O)cc2)n1 [Example 64] | 0.0987 |  |
| CCCCc1cnc(-c2cc(Cl)c(OC)c(Cl)c2)c(-c2ccc(C(=O)O)cc2)n1 [Example 65] | 0.0946 |  |
| CCCc1cnc(-c2cc(F)c(OC)c(F)c2)c(-c2ccc(C(=O)O)cc2)n1 [Example 66] | 0.077 |  |
| CCCCc1cnc(-c2ccc(OC)cc2)c(-c2cc(F)c(C(=O)O)c(F)c2)n1 [Example 69] | 0.856 |  |

| Structure (SMILES) | IC50 [µM] | inhibition at 10 µM [%] |
| --- | --- | --- |
| CCCCc1cnc(-c2ccc(OC)cc2)c(-c2ccc(OCC(=O)O)cc2)n1 [Example 70] | 1.67 |  |
| CCCCc1cnc(-c2ccc(OC)cc2)c(-c2ccc(CCC(=O)O)cc2)n1 [Example 71] | 0.132 |  |
| CCCCc1cnc(-c2ccc(OC)cc2)c(-c2ccc(CC(=O)O)c(F)c2)n1 [Example 72] | 0.526 |  |
| CCOCCc1cnc(-c2ccc(OC)cc2)c(-c2ccc(C(=O)O)cc2)c1 [Example 73] | 0.104 |  |
| CCCCc1cnc(-c2ccc(OC(F)(F)F)cc2)c(-c2ccc(C(=O)O)cc2)n1 [Example 75] | 0.0844 |  |
| CCCCNC(=O)c1cnc(-c2ccc(OC)cc2)c(-c2ccc(C(=O)O)cc2)c1 [Example 76, 4-(5-(butylcarbamoyl)-2-(4-methoxyphenyl)pyridin-3-yl)benzoic Acid Hydrochloride] |  | 10 |
| CCOCCCc1cnc(-c2ccc(OC)cc2)c(-c2ccc(C(=O)O)cc2)c1 [Example 77] | 0.0585 |  |
| COCc1cnc(-c2ccc(OC)cc2)c(-c2ccc(C(=O)O)cc2)c1 [Example 78] | 2.21 |  |
| CCCCc1cnc(-c2ccc(CCC)cc2)c(-c2ccc(C(=O)O)cc2)n1 [Example 79] | 0.369 |  |
| CCCCc1cnc(-c2ccc(OC)cc2)c(-c2ccc(C(=O)O)c(C)c2)n1 [Example 83] | 0.0662 |  |
| COCCCc1cnc(-c2ccc(OC)cc2)c(-c2ccc(C(=O)O)cc2)c1 [Example 84, 4-(2-(4-methoxyphenyl)-5-(3-methoxypropyl)pyridin-3-yl)benzoic Acid] | 0.117 |  |
| CCCCc1cnc(-c2ccc(COC)cc2)c(-c2ccc(C(=O)O)cc2)n1 [Example 86] | 1.82 |  |
| CCCCc1cnc(-c2ccc(CC#N)cc2)c(-c2ccc(C(=O)O)cc2)n1 [Example 87] | 1.79 |  |
| CCCCc1cnc(-c2ccc(C(C)C)cc2)c(-c2ccc(C(=O)O)cc2)n1 [Example 88] | 0.928 |  |
| CCCCc1cnc(-c2ccc(C3COC3)cc2)c(-c2ccc(C(=O)O)cc2)n1 [Example 89] | 1.8 |  |
| CCCCc1cnc(-c2ccc(OC)cc2)c(-c2ccc(C(=O)O)c(O)c2)n1 [Example 91] | 0.247 |  |
| CCCCc1cnc(-c2ccc(OC)cc2)c(-c2ccc(C(=O)O)c(Cl)c2)n1 [Example 92] | 0.181 |  |
| CCCCc1cnc(-c2ccc(OC)cc2)c(-c2ccc(CCC(=O)O)c(F)c2)n1 [Example 93] | 0.184 |  |
| COCCCc1cnc(-c2cc(F)c(OC)c(F)c2)c(-c2ccc(CCC(=O)O)cc2)c1 [Example 95] | 0.0576 |  |
| COc1ccc(-c2ncc(CC3CC3)cc2-c2ccc(C(=O)O)cc2)cc1 [Example 96] | 0.0887 |  |

| Structure (SMILES) | IC50 [µM] | inhibition at 10 µM [%] |
| --- | --- | --- |
| COCCCc1cnc(-c2cc(F)c(OC)c(F)c2)c(-c2ccc(CCC(=O)O)cc2)n1 [Example 97] | 0.0795 |  |
| COc1c(F)cc(-c2ncc(CC(C)C)nc2-c2ccc(C(=O)O)cc2)cc1F [Example 98] | 0.0605 |  |
| COc1c(F)cc(-c2ncc(CC(C)C)cc2-c2ccc(C(=O)O)cc2)cc1F [Example 99] | 0.0514 |  |
| CCCCCCc1cnc(-c2ccc(OC)cc2)c(-c2ccc(C(=O)O)cc2)c1 [Example 100] | 0.082 |  |
| COc1ccc(-c2ncc(Cc3ccccc3)cc2-c2ccc(C(=O)O)cc2)cc1 [Example 101] | 0.164 |  |
| COCCc1cnc(-c2ccc(OC)cc2)c(-c2ccc(C(=O)O)cc2)c1 [Example 102] | 0.79 |  |
| COc1ccc(-c2ncc(CCc3ccccc3)cc2-c2ccc(C(=O)O)cc2)cc1 [Example 105] | 0.453 |  |
| COCCCc1cnc(-c2ccc(OC)c(F)c2)c(-c2ccc(C(=O)O)cc2)c1 [Example 106] | 0.101 |  |
| COCCCc1cnc(-c2cc(F)c(OC)c(F)c2)c(-c2ccc(C(=O)O)cc2)c1 [Example 107] | 0.0627 |  |
| COCCCc1cnc(-c2ccc(OC)c(F)c2)c(-c2ccc(CCC(=O)O)cc2)c1 [Example 108] | 0.0712 |  |
| COCCCc1cnc(-c2cc(F)c(OC)c(F)c2)c(-c2ccc(C(=O)O)c(C)c2)n1 [Example 109] | 0.0799 |  |
| CCCCc1cnc(-c2ccc(OC)cc2)c(-c2cc(C)c(C(=O)O)c(C)c2)n1 [Example 110] | 0.265 |  |
| CCCCc1cnc(-c2ccc(OC)cc2)c(-c2ccc(C(=O)O)c(CC)c2)n1 [Example 111] | 0.0826 |  |
| COCCCc1cnc(-c2cc(F)c(OC)c(F)c2)c(-c2ccc(C(=O)O)c(F)c2)n1 [Example 112] | 0.561 |  |
| COCCCc1cnc(-c2ccc(OC)c(F)c2)c(-c2ccc(C(=O)O)c(F)c2)n1 [Example 113] | 1 |  |
| CCCCc1cnc(-c2ccc(OC)cc2)c(-c2ccc(C(=O)O)c(C)c2)c1 [Example 114] | 0.0604 |  |
| COCCCc1cnc(-c2cc(F)c(OC)c(F)c2)c(-c2ccc(C(=O)O)c(C)c2)c1 [Example 115] | 0.0497 |  |
| COCCCc1cnc(-c2ccc(OC)cc2)c(-c2ccc(C(=O)O)c(C)c2)c1 [Example 116, 4-(2-(4-methoxyphenyl)-5-(3-methoxypropyl)pyridin-3-yl)-2-methylbenzoic Acid] | 0.0684 |  |
| CCOCCc1cnc(-c2cc(F)c(OC)c(F)c2)c(-c2ccc(C(=O)O)cc2)n1 [Example 117] | 0.543 |  |
